Read-outs that look alike come from different tables or passages of the source.
What was measured:
[1] = octanol/water; cited from earlier work
[2] = cited from earlier work
[3] = Miscibility with water and lipophilic cosmetic solvents (Neutralöl, Paraffinöl); assay type: physicochemical; details: for Löslichkeit + Neutralöl auf: 2,5 g: 0,1 g PKR made up with Neutralöl to 2,5 g; for Löslichkeit + Neutralöl auf: 5 g: 0,1 g PKR made up with Neutralöl to 5 g; for Löslichkeit + Neutralöl auf: 10 g: 0,1 g PKR made up with Neutralöl to 10 g; for Löslichkeit + Paraffinöl auf: 5 g: 0,1 g PKR made up with Paraffinöl to 5 g; for Löslichkeit + Paraffinöl auf: 10 g: 0,1 g PKR made up with Paraffinöl to 10 g; for Löslichkeit + Wasser auf: 10 g: 0,1 g PKR made up with water to 10 g; for Löslichkeit + Wasser auf: 20 g: 0,1 g PKR made up with water to 20 g; as to Löslichkeit + Neutralöl auf: 10 g: key: +: klare Lösung; -: Zweiphasengemisch; as to Löslichkeit + Neutralöl auf: 2,5 g: key: +: klare Lösung; -: Zweiphasengemisch; as to Löslichkeit + Neutralöl auf: 5 g: key: +: klare Lösung; -: Zweiphasengemisch
Source text: Mischungen aus 40 Gew.-% Kühlreagenz (a) und jeweils 60 bzw. 50 Gew.-% Alkohol (b) wurden gemäß Beispiel 1 erzeugt bzw. mit 10 Gew.-% Wasser versetzt.
Anschließend wurde alternativ mit Wasser, Neutralöl oder Paraffinöl versetzt.

Row | SMILES | log Kow [1] | Löslichkeit in Wasser ([2]; water) | Löslichkeit + Neutralöl auf: 2,5 g ([3]; Lagertemperatur 8 °C) | Löslichkeit + Neutralöl auf: 2,5 g ([3]; Lagertemperatur 20 °C) | Löslichkeit + Neutralöl auf: 5 g ([3]; Lagertemperatur 8 °C) | Löslichkeit + Neutralöl auf: 5 g ([3]; Lagertemperatur 20 °C) | Löslichkeit + Neutralöl auf: 10 g ([3]; Lagertemperatur 8 °C) | Löslichkeit + Neutralöl auf: 10 g ([3]; Lagertemperatur 20 °C) | Löslichkeit + Paraffinöl auf: 5 g ([3]; Lagertemperatur 8 °C) | Löslichkeit + Paraffinöl auf: 5 g ([3]; Lagertemperatur 20 °C) | Löslichkeit + Paraffinöl auf: 10 g ([3]; Lagertemperatur 8 °C) | Löslichkeit + Paraffinöl auf: 10 g ([3]; Lagertemperatur 20 °C) | Löslichkeit + Wasser auf: 10 g ([3]; Lagertemperatur 8 °C) | Löslichkeit + Wasser auf: 10 g ([3]; Lagertemperatur 20 °C) | Löslichkeit + Wasser auf: 20 g ([3]; Lagertemperatur 8 °C) | Löslichkeit + Wasser auf: 20 g ([3]; Lagertemperatur 20 °C) | Löslichkeit in Wasser ([2]; bei 20 °C)
1 | CC(O)CO (stereo not shown) [1,2-Propandiol] | -0,90 |  |  |  |  |  |  |  |  |  |  |  |  |  |  |  | 
2 | CC(C)[C@@H]1CC[C@@H](C)C[C@H]1O [L-Menthol] |  | 0,355 g/L | + | + | + | + | + | + | + | + | + | + | - | - | - | - | 
3 | CNC(=O)C(C)(C(C)C)C(C)C [WS-23, 2-Isopropyl-N,2,3-trimethylbutanamid] |  |  | + | + | + | + | + | + | - | - | - | - | - | - | - | + | ca. 0,5 g/L
